Patent publication US20080096848A1, “Substituted N-Aryl-9-Oxo-9H-Fluorene-1-Carboxamides and Analogs as Activators of Caspases and Inducers of Apoptosis” (CYTOVIA INC., priority 2004, published 2008)
pEC50: −log10 of the molar value. Read-outs that look alike come from different tables or passages of the source.

Test system: T-47D
Assay: Caspase cascade activation assay (Ac-DEVD-R110 fluorogenic substrate) in T-47D cells
Assay type: cell-based, Human
Conditions: 24 h incubation; for Caspase activity (Ratio): ratio of net RFU (T=3 h) of test compound to control, 0.16 to 10 μM final; for pEC50: sigmoidal dose-response, read-out: Caspase potency EC50
Description: Human breast cancer cell lines T-47D was grown according to media component mixtures designated by American Type Culture Collection+10% FCS (Invitrogen Corporation), in a 5% CO2-95% humidity incubator at 37° C. T-47D and ZR-75-1 cells were maintained at a cell density between 30 and 80% confluency and for HL-60 at a cell density of 0.1 to 0.6×10^6 cells/mL. Cells were harvested at 600×g and resuspended at 0.65×10^6 cells/mL into appropriate media+10% FCS. An aliquot of 45 μL of cells was added to a well of a 96-well microtiter plate containing 5 μL of a 10% DMSO in RPMI-1640 media solution containing 1.6 to 100 μM of N-(2-methylphenyl)-9-oxo-9H-fluorene-1-carboxamide or other test compound (0.16 to 10 μM final). An aliquot of 45 μL of cells was added to a well of a 96-well microtiter plate containing 5 μL of a 10% DMSO in RPMI-1640 media solution without test compound as the control sample. The samples were mixed by agitation and then incubated at 37° C. for 24 h in a 5% CO2-95% humidity incubator. After incubation, the samples were removed from the incubator and 50 μL of a solution containing 20 μM of N—(Ac-DEVD)-N′-ethoxycarbonyl-R110 fluorogenic substrate (SEQ ID NO:1) (Cytovia, Inc.; U.S. Pat. No. 6,335,429), 20% sucrose (Sigma), 20 mM DTT (Sigma), 200 mM NaCl (Sigma), 40 mM Na PIPES buffer pH 7.2 (Sigma), and 500 μg/mL lysolecithin (Calbiochem) was added. The samples were mixed by agitation and incubated at room temperature. Using a fluorescent plate reader (Model 1420 Wallac Instruments), an initial reading (T=0) was made about 1-2 min after addition of the substrate solution, employing excitation at 485 nm and emission at 530 nm, to determine the background fluorescence of the control sample. After about 3 h of incubation, the samples were read for fluorescence as above (T=3 h).
The Relative Fluorescence Unit values (RFU) were used to calculate the sample readings as follows: RFU(T=3h)−Control RFU(T=0)=Net RFU(T=3h)
The activity of caspase cascade activation was determined by the ratio of the net RFU value for N-(2-methylphenyl)-9-oxo-9H-fluorene-1-carboxamide and other test compounds to that of control samples. The EC50 (nM) was determined by a sigmoidal dose-response calculation (Prism 2.0, GraphPad Software Inc.).

Row | SMILES | pEC50 (Homo sapiens, T47D, 24 h) | pEC50 | pEC50 (Hydrochloride) | Caspase activity (Ratio)
1 | O=C(Nc1ccccc1-n1cccn1)c1cccc2c1-c1ccccc1S2(=O)=O [Example 33, 9,9-Dioxo-N-(2-(1H-pyrazol-1-yl)phenyl)-dibenzothiophene-1-carboxamide] | – | < 5.00 | – | 1.6
2 | O=C(Nc1ccccc1-n1cccn1)c1cccc2c1OCC2 [Example 19, N-(2-(1H-pyrazol-1-yl)phenyl)-2,3-dihydrobenzofuran-7-carboxamide] | < 5.00 | – | – | 0.9
3 | Cc1cccc(NC(=O)c2cccc3c2C(=O)c2ccccc2-3)c1 [N-(3-Methylphenyl)-9-oxo-9H-fluorene-1-carboxamide] | < 5.00 | – | – | 1.3
4 | O=C(Nc1ccccc1-n1cccn1)c1cccc2sc3c(c12)C(=O)CC=C3 [Example 34, 9-Oxo-N-(2-(1H-pyrazol-1-yl)phenyl)-dibenzothiophene-1-carboxamide] | < 5.00 | – | – | 1.2
5 | O=C(Nc1cccc2ccccc12)c1cccc2c1C(=O)c1ccccc1-2 [N-(1-Naphthalen-1-yl)-9-oxo-9H-fluorene-1-carboxamide] | – | 5.22 | – | 3.2
6 | O=C(Nc1ccccc1-n1cccc1)c1cccc2c1C(=O)c1ccccc1-2 [Example 2, N-(2-(1H-Pyrrolo-1-yl)-phenyl)-9-oxo-9H-fluorene-1-carboxamide] | – | 5.65 | – | 4.2
7 | O=C(Nc1ccccc1-n1ccnc1)c1cccc2c1C(=O)c1ccccc1-2 [Example 4, N-(2-(1H-Imidazol-1-yl)-phenyl)-9-oxo-9H-fluorene-1-carboxamide] | < 5.00 | – | – | 1.4
8 | Cc1cccc(C)c1NC(=O)c1cccc2c1C(=O)c1ccccc1-2 [Example 7, N-(2,6-Dimethylphenyl)-9-oxo-9H-fluorene-1-carboxamide] | < 5.00 | – | – | 1.4
9 | O=C(Nc1ccccc1O)c1cccc2c1C(=O)c1ccccc1-2 [Example 35, N-(2-Hydroxy-phenyl)-9-oxo-9H-fluorene-1-carboxamide] | < 5.00 | – | – | 1.3
10 | Cc1ccncc1NC(=O)c1cccc2c1C(=O)c1ccccc1-2 [Example 21, N-(4-Methylpyridin-3-yl)-9-oxo-9H-fluorene-1-carboxamide] | < 5.00 | – | – | 0.8
11 | O=C(Nc1ccccc1-n1cccn1)c1cccc2c3c([nH]c12)CCCC3 [Example 16, N-(2-(1H-pyrazol-1-yl)phenyl)-6,7,8,9-tetrahydro-5H-carbazole-1-carboxamide] | < 5.00 | – | – | 0.8
12 | O=C(Nc1ccccc1)c1cccc2c1C(=O)c1ccccc1-2 [Example 6, 9-Oxo-N-phenyl-9H-fluorene-1-carboxamide] | < 5.00 | – | – | 1.9
13 | Cc1ccc(NC(=O)c2cccc3c2C(=O)c2ccccc2-3)cc1 [N-(4-Methylphenyl)-9-oxo-9H-fluorene-1-carboxamide] | < 5.00 | – | – | 1.4
14 | CN(C)Cc1ccccc1NC(=O)c1cccc2c1C(=O)c1ccccc1-2.Cl [Example 24, N-(2-Dimethylaminomethyl-phenyl)-9-oxo-9H-fluorene-1-carboxamide Hydrochloride] | – | – | < 5.00 | 1.8
15 | Nc1ccccc1NC(=O)c1cccc2c1C(=O)c1ccccc1-2 [Example 26, N-(2-Amino-phenyl)-9-oxo-9H-fluorene-1-carboxamide] | < 5.00 | – | – | 1.2
16 | Cc1cccnc1NC(=O)c1cccc2c1C(=O)c1ccccc1-2 [Example 11, N-(3-Methylpyridin-2-yl)-9-Oxo-9H-fluorene-1-carboxamide] | < 5.00 | – | – | 1.2
17 | O=C(Nc1ccccc1Cl)c1cccc2c1C(=O)c1ccccc1-2 [N-(2-Cholorophenyl)-9-oxo-9H-fluorene-1-carboxamide] | – | 5.98 | – | 7.4

Continued, in another order:

Row | pEC50 (Homo sapiens, T47D, 24 h) | pEC50 | pEC50 (Hydrochloride) | SMILES | Caspase activity (Ratio)
18 | 5.60 | – | – | O=C(Nc1ccccc1[N+](=O)[O-])c1cccc2c1C(=O)c1ccccc1-2 [Example 25, N-(2-Nitrophenyl)-9-oxo-9H-fluorene-1-carboxamide] | 2.2
19 | < 5.00 | – | – | O=C(Nc1ccccn1)c1cccc2c1C(=O)c1ccccc1-2 [Example 5, 9-Oxo-N-(pyridin-2-yl)-9H-fluorene-1-carboxamide] | 1.2
20 | 6.38 | – | – | COC(=O)c1ccccc1NC(=O)c1cccc2c1C(=O)c1ccccc1-2 [N-(2-(Methoxycarbonyl)phenyl)-9-oxo-9H-fluorene-1-carboxamide] | 7.1
21 | 5.82 | – | – | O=C(Nc1ccccc1-c1ccccc1)c1cccc2c1C(=O)c1ccccc1-2 [N-(2-Phenylphenyl)-9-oxo-9H-fluorene-1-carboxamide] | 8.1
22 | < 5.00 | – | – | CN1CCN(Cc2ccccc2NC(=O)c2cccc3c2C(=O)c2ccccc2-3)CC1 [Example 22, N-(2-(4-Methylpiperazin-1-yl-methyl)phenyl)-9-oxo-9H-fluorene-1-carboxamide] | 1.0
23 | 5.45 | – | – | O=C(Nc1ccccc1Br)c1cccc2c1C(=O)c1ccccc1-2 [N-(2-Bromophenyl)-9-oxo-9H-fluorene-1-carboxamide] | 9.1
24 | < 5.00 | – | – | CC1CCCCC1NC(=O)c1cccc2c1C(=O)c1ccccc1-2 (stereo not shown) [Example 18, N-(2-Methylcyclohexyl)-9-oxo-9H-fluorene-1-carboxamide] | 1.8
25 | 5.43 | – | – | Cc1ccccc1NC(=O)c1cccc2c1C(O)c1ccccc1-2 (stereo not shown) [Example 36, 9-Hydroxy-N-(2-methylphenyl)-9H-fluorene-1-carboxamide] | 3.3
26 | 5.71 | – | – | O=C(Nc1ccccc1F)c1cccc2c1C(=O)c1ccccc1-2 [N-(2-Fluorophenyl)-9-oxo-9H-fluorene-1-carboxamide] | 5.7
27 | < 5.00 | – | – | O=C(Nc1ccccc1-c1nnn[nH]1)c1cccc2c1C(=O)c1ccccc1-2 [Example 8, N-(2-(1H-tetrazol-5-yl)phenyl)-9-oxo-9H-fluorene-1-carboxamide] | 1.1
28 | 6.16 | – | – | O=C(Nc1ccccc1OC(F)F)c1cccc2c1C(=O)c1ccccc1-2 [N-(2-Difluoromethoxyphenyl)-9-oxo-9H-fluorene-1-carboxamide] | 5.9
29 | 6.06 | – | – | Nc1ccc2c(c1)C(=O)c1c(C(=O)Nc3ccccc3-n3cccn3)cccc1-2 [Example 30, 7-Amino-N-(2-(1H-pyrazol-1-yl)phenyl)-9-oxo-9H-fluorene-1-carboxamide] | 4.4
30 | 5.72 | – | – | O=C(Nc1ccccc1N1CCCCC1)c1cccc2c1C(=O)c1ccccc1-2 [Example 3, 9-Oxo-N-(2-(piperidin-1-yl)-phenyl)-9H-fluorene-1-carboxamide] | 7.4
31 | 5.70 | – | – | N#Cc1ccccc1NC(=O)c1cccc2c1C(=O)c1ccccc1-2 [N-(2-Cyanophenyl)-9-oxo-9H-fluorene-1-carboxamide] | 2.3
32 | 5.54 | – | – | O=C(Nc1ccccc1CBr)c1cccc2c1C(=O)c1ccccc1-2 [Example 14, N-(2-Bromomethylphenyl)-9-oxo-9H-fluorene-1-carboxamide] | 5.7
